From PMC5831858, “Pharmacological characterisation of CR6086, a potent prostaglandin E2 receptor 4 antagonist, as a new potential disease-modifying anti-rheumatic drug” (Arthritis Research & Therapy, 2018)

What was measured:
BB (non-selective) = test: BB receptor (non-selective) binding; details: [^125I][Tyr^4]bombesin, Rat cerebral cortex
IL-6 gene expression = IL-6 gene expression in THP-1 cells differentiated to macrophages; assay type: cell-based; details: Homo sapiens, LPS 10 ng/ml + PGE2 10 nM, read-out: IC50 transcription of IL-6
Description: The human monocyte cell line THP-1 was obtained from the ATCC and was grown according to the instructions provided. THP-1 monocytic cells were differentiated to macrophages with 100 nM phorbol 12-myristate 13-acetate (PMA) for 4 days. Macrophages were then stimulated with lipopolysaccharide (LPS) 10 ng/ml and PGE2 10 nM for 3 or 24 h. Total RNA was purified using the ABI Prism 6100 Nucleic Acid PrepStation (Applied Biosystems, Foster City, CA, USA) and retrotranscribed using the High-Capacity cDNA Reverse Transcription Kit (Thermo Fisher Scientific). RT-PCR analysis was performed using the Applied Biosystems 7500 Fast Real-Time PCR System using specific TaqMan assays (number Hs00174131_m1 for IL-6, number Hs00900054_m1 for vascular endothelial growth factor A [VEGFA]; Thermo Fisher Scientific) and, as an endogenous control, the 18S Pre-Developed TaqMan® Assay (Thermo Fisher Scientific). The data analysis, with normalisation on 18S amplified values, was done following Thermo Fisher Scientific’s specific instructions for gene expression relative quantification. All individual data are the result of at least three different analyses for each sample.

A2A = A2A (Homo sapiens, UniProt P29274); test: Adenosine receptor A2A binding; details: [^3H]CGS 21680, Human recombinant HEK-293 cells
ER = test: Nuclear receptor ER binding; details: [^3H]estradiol, MCF-7 cells
NOP (ORL1) = NOP (ORL1) (Homo sapiens, UniProt P41146); test: Opioid receptor NOP (ORL1) binding; details: [^3H]nociceptin, Human recombinant HEK-293 cells, read-out: CR6086 Activity at 10µM
COX-2 = molecular target: T1, COX-2 (Homo sapiens, UniProt P35354); test: Cyclooxygenase COX-2 enzymatic activity; assay type: biochemical; details: Sf9 cells, read-out: CR6086 Activity at 10µM
T1 construct: host or cells: Sf9 cells

CB1 = CB1 (Homo sapiens, UniProt P21554); test: Cannabinoid receptor CB1 binding; details: [^3H]CP 55940, Human recombinant CHO cells, read-out: CR6086 Activity at 10µM
Kv channel = test: Ion channel Kv binding; details: [^125I]α-dendrotoxin, Rat cerebral cortex
Y2 = Y2 (Homo sapiens, UniProt P49146); test: Neuropeptide Y receptor Y2 binding; details: [^125I]peptide YY, KAN-TS cells, read-out: CR6086 Activity at 10µM
5-HT3 = 5-HT3 (Homo sapiens, UniProt P46098); test: Serotonin receptor 5-HT3 binding; details: [^3H]BRL 43694, Human recombinant CHO cells, read-out: CR6086 Activity at 10µM
Sequence of 5-HT3 (P46098 24-478): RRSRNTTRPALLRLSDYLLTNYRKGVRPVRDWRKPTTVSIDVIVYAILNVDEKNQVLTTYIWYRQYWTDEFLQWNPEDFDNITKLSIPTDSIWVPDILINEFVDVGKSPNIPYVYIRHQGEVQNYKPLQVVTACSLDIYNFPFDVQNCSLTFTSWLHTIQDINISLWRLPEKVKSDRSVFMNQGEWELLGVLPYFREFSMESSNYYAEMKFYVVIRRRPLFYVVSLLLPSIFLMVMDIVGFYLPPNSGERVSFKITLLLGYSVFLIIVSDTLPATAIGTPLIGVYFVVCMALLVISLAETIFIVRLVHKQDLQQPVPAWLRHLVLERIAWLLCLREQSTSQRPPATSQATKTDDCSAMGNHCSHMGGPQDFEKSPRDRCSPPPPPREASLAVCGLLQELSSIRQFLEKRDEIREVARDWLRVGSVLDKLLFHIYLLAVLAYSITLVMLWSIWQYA

T1 sequence (P35354 18-604): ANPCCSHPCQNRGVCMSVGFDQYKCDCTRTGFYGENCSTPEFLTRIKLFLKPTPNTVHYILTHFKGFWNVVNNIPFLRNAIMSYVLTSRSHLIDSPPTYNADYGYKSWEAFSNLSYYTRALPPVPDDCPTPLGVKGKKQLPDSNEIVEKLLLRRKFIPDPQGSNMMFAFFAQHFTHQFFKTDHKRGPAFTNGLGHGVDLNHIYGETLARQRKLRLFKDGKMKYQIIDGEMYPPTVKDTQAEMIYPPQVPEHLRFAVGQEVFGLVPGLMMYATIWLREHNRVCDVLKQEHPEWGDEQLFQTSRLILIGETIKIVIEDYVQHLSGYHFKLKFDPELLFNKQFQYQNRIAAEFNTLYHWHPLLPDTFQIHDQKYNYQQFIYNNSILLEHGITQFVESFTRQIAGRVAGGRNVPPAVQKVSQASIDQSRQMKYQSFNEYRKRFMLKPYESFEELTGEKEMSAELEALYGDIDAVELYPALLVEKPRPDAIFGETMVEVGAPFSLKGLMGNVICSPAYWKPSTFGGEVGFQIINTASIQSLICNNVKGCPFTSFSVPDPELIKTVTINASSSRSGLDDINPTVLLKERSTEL
Sequence of Y2 (P49146 whole entry): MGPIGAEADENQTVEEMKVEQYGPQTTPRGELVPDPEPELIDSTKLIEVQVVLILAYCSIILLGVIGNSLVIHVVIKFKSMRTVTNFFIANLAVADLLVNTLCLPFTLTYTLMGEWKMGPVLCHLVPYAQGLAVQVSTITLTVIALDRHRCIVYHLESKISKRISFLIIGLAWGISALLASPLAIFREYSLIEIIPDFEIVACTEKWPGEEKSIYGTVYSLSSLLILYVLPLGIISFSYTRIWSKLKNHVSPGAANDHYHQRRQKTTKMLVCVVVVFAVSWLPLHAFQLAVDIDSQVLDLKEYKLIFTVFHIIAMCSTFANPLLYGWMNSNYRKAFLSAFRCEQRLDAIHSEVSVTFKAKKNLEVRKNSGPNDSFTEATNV
Sequence of NOP (ORL1) (P41146 whole entry): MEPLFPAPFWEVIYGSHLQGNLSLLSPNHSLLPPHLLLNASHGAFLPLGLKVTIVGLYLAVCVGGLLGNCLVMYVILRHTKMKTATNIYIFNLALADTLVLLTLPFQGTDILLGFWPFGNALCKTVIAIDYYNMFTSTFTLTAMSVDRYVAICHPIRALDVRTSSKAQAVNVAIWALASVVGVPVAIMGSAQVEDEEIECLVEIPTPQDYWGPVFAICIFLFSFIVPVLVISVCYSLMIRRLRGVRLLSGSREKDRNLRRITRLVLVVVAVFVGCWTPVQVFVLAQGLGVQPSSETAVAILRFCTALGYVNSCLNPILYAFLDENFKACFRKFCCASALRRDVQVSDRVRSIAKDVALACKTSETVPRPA
Sequence of A2A (P29274 whole entry): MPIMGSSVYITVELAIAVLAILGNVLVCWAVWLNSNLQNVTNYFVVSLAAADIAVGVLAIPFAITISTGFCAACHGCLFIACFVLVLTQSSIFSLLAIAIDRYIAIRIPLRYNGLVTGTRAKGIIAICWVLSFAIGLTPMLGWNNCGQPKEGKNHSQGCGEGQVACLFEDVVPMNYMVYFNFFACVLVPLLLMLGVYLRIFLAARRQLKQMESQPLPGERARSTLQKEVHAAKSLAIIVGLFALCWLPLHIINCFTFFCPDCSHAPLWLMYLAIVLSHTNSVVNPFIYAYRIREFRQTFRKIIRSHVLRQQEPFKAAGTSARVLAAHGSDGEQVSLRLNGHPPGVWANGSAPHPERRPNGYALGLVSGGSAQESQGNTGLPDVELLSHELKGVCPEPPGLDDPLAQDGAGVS
Sequence of CB1 (P21554 whole entry): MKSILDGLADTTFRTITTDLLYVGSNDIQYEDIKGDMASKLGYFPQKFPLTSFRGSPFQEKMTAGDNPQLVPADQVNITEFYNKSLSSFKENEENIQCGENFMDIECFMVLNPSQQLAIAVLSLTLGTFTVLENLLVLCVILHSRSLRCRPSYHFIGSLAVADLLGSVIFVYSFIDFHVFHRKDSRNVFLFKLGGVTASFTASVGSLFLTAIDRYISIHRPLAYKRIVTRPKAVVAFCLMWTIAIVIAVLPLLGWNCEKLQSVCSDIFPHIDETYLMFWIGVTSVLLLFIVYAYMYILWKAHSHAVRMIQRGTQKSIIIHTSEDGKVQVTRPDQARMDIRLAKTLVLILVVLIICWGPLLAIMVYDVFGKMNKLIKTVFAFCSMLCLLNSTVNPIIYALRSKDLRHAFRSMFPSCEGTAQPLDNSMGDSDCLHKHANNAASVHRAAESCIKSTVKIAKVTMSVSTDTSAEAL

O=C([O-])c1ccc(C2(NC(=O)[C@H]3CC4(CCN3Cc3ccc(C(F)(F)F)cc3)CC4)CC2)cc1.[Na+] [CR6086, Sodium (R)-4-(1-(6-(4-(trifluoromethyl)benzyl)-6-azaspiro[2.5]octane-5-carboxamido)cyclopropyl)benzoate]
CR6086 Activity at 10µM (BB (non-selective)): IN (IN = < 20% displacement or inhibition (all tables)) | IC50 (IL-6 gene expression): 70 nM | CR6086 Activity at 10µM (A2A): IN (IN = < 20% displacement or inhibition (all tables)) | CR6086 Activity at 10µM (ER): IN (IN = < 20% displacement or inhibition (all tables)) | inhibition at 10 µM (NOP (ORL1)): < 20% | inhibition at 10 µM (COX-2): < 20% | inhibition at 10 µM (CB1): < 20% | CR6086 Activity at 10µM (Kv channel): IN (IN = < 20% displacement or inhibition (all tables)) | inhibition at 10 µM (Y2): < 20% | inhibition at 10 µM (5-HT3): < 20%
